# Measured values: US6770632B1, “Folypolyglutamyl synthetase gene transfer to enhance antifolate” (priority 1999, dated 2004)
# “And” between values parts separate entries of the source, which are not always exact repeats. Equal entries are not always repeated. Where two headings read alike, the source gives them in different places.
# Columns and labels:
# [1] = test system: 9L cells transfected with CD; settings: 9L cells stably transfected with E. coli cytosine deaminase cDNA; cited from earlier work
# 9L/FPGS cells [2] = test: Cell culture survival study, 9L/FPGS cells; format: cell-based, rat; settings: for EC50: Rattus norvegicus, 4 h, 9L/FPGS, read-out: ED50 (the source's name)
# Procedure: (§1) Cell Culture Survival Studies: Cells were plated in triplicate at 8×10^5 cells per 10-cm-diameter plate, and were allowed to adhere for 4 hours, after which the medium was replaced with medium containing MTX or EDX. […] Drug-free medium was then added, and three days later the cells were trypsinized and counted on a model ZM Coulter apparatus. Dose-response curves were generated using Sigma Plot 3.0, which employs curve-fitting parameters based on the Marquardt-Levenberg method (Marquardt, D. W., Siam, J., J. Soc. Indust. Appl. Math 11:431-441 (1963)).
# 9L/BAG cells = test: Conditioned medium colony formation of 9L/BAG cells; format: cell-based, rat
# Procedure: Four mL conditioned medium+2 mL fresh medium were added to 10-cm-diameter plates containing 9L/BAG cells plated overnight (1000 cells/dish, with a clonogenic efficiency of approximately 20%). Six days later, the cells were fixed with 4% paraformaldehyde in PBS. […] The next day, blue colonies greater than 1 mm in diameter were counted.
# This conditioned medium was then added to 9L/BAG cells. A week later, the cells were stained for LacZ expression, which allowed colony formation to be assayed.
# FPGS = settings: relative to MTX; cited from earlier work
# 9L cells [3] = test: Cell culture survival study, 9L cells; format: cell-based, rat; settings: Rattus norvegicus, 4 h, 9L, read-out: ED50 (the source's name)
# Procedure: as §1
# [4] = test system: cocultures of 9L/FPGS and 9L cells; test: Bystander effect study, cocultures of 9L/FPGS and 9L cells; format: cell-based, rat; settings: for EC50: Rattus norvegicus, 4 h, 4 hrs drug exposure, FIG. 4b, read-out: ED50 (the source's name); for transmission efficiency (TE): 4 hour pulses
# Procedure: For bystander effect studies, cells were plated in triplicate with varying combinations of 9L/FPGS and 9L cells such that the total number of cells was 8×10^5 per 10-cm-diameter plate. The same protocol of 4 hour cell adherence followed by 4 hour drug exposure, washes, growth in drug free medium for 3 days, and counting on a ZM coulter apparatus was then followed. […] Four mL conditioned medium+2 mL fresh medium were added to 10-cm-diameter plates containing 9L/BAG cells plated overnight (1000 cells/dish, with a clonogenic efficiency of approximately 20%). Six days later, the cells were fixed with 4% paraformaldehyde in PBS. Fixed cells were stained for LacZ by incubating overnight in a solution containing 35 mM potassium ferricyanide, 35 mM potassium ferrocyanide, 2 mM magnesium chloride, and 0.2% 5-bromo-4-chloro-3-indolyl-β-D galactoside (Xgal; Fisher Scientific Co.;Pittsburgh, Pa.) at pH=7.3 (Price, J., et al., Proceedings of the National Academy of Sciences USA 84:156-160 (1987)). The next day, blue colonies greater than 1 mm in diameter were counted.
# However, a more quantitative approach is to generate a dose-response curve for nontransfected cells, transfected cells, and a coculture and to calculate the transmission efficiency (TE) for the coculture (Friedlos, F., et al., Journal of Medicinal Chemistry 40:1270-1275 (1997)). [formula]
# The superscripts 0, N, and 100 designate the ED50 values for cultures containing 0, N, and 100% transfected cells.
# [5] = test system: subcutaneous 9L/FPGS tumors; test: Growth of subcutaneous 9L/FPGS tumors in nude mice; format: in vivo; settings: 3 mg/kg daily i.p.
# Procedure: (§2) In Vivo Experiments: 10^5 9L or 9L/FPGS cells or a mixture of 8×10^5 9L+2×10^5 9L/FPGS cells in 200 μL DMEM were injected subcutaneously into the flanks of six week old female nude mice (NCr/Sed, nu/nu, 20 gm; Massachusetts General Hospital breeding colony). After 14 days, when the tumors had reached an average volume of 60 mm^3, the mice were randomly divided into experimental groups with five mice per group. Intraperitoneal injections of varying MTX or EDX doses dissolved in 200 μL 0.9% NaCl were administered either daily or every third day. Tumor size was measured weekly using calipers. Tumor volume was calculated as length×width×height, as described previously (Takamiya, Y., et al., Journal of Neuroscience Research 33:493-503 (1992)).
# in vivo = settings: nude, mouse, ip
# subcutaneous 9L tumors = test: Growth of subcutaneous 9L tumors in nude mice; format: in vivo; settings: 3 mg/kg daily i.p.
# Procedure: as §2
# [6] = test system: mixed subcutaneous tumors 20% 9L/FPGS and 80% 9L cells; test: Growth of mixed subcutaneous tumors (20% 9L/FPGS + 80% 9L) in nude mice; format: in vivo; settings: 3 mg/kg daily i.p.
# Procedure: as §2
# [7] = test system: rhabdomyosarcoma cell line; settings: rhabdomyosarcoma cell line transfected with rabbit carboxylesterase cDNA; cited from earlier work
# 9L cells [8] = test: [3H]MTX accumulation and thin layer chromatography of MTX polyglutamates in 9L cells; settings: 24 hour exposure to 2 μM MTX, TLC
# Procedure: (§3) Thin Layer Chromatography of MTX Metabolites: 10^6 9L or 9L/FPGS cells were plated in 6-cm diameter dishes and allowed to adhere for 4 hours, after which cells were incubated overnight with 2 μM 3′, 5′, 7-[^3H] methotrexate (Moravek Biochemicals; Brea, Calif.). Cells were then trypsinized, centrifuged, resuspended in 300 μL deionized water, and sonicated for 45 seconds at half-maximal power. Sonicated cells were centrifuged briefly to remove cellular debris, after which protein concentration was calculated using the Bradford protein assay. Proteins were precipitated with 1 mL methanol at −20° C. for 2 hr. Precipitated proteins were removed by centrifugation at 20,000 g for 30 min, and the supernatant was then concentrated to 30 μL under a stream of N2 at 37° C. on a Meyer N-Evap Analytical Evaporator (Organomation Associates Inc., Northborough, Mass.). A 1 μL aliquot was scintillation counted—cpm were converted into moles of drug taken up by determining the cpm of a known quantity of [^3H] MTX. […] Plates were eluted with a chloroforrn-methanol-acetic acid mixture (2:2:1) containing 20 mg/mL cetyl trimethylammonium bromide (Sigma). Following elution, the plates were placed under ordinary fluorescent light for 2 days, after which 20 nmol unlabelled standards were visualized under long-wave ultraviolet light. Plates were run in duplicate and the average RF values of the standards were: MTX=0.66; MTX-G1=0.59; MTX-G2=0.44, MTX-G3=0.33; MTX-G4=0.27; MTX-G5=0.25. Regions corresponding to where standards migrated were marked in the sample lane, scraped individually into scintillation vials, and counted. The amount of each radioactive metabolite in a sample lane was determined as a percentage of the total radioactivity recovered from that sample lane, after subtraction of the background counts obtained from lanes lacking radioactive sample.
# 9L/FPGS cells [9] = test: [3H]MTX accumulation and thin layer chromatography of MTX polyglutamates in 9L/FPGS cells; settings: 24 hour exposure to 2 μM MTX, TLC
# Procedure: as §3
# [10] = test system: cocultures with nitroreductase-expressing cells; settings: cited from earlier work
# [11] = test system: 9L cells transfected with HSV-TK; settings: 9L cells stably transfected with HSV-TK cDNA; cited from earlier work
# [12] = 4 hour pulse, repeat of the dose-response curve (Table 3 footnote c)
# [13] = 4 hrs drug exposure, curves of FIG. 1 (MTX) / FIG. 3a (EDX)
smiles,measurement,setting,value
Nc1nc(=O)[nH]cc1F [5-fluorocytosine],ED50 shift nontransfected versus transfected cells,[1],80 fold
"CCC(Cc1cnc2nc(N)nc(N)c2n1)c1ccc(C(=O)N[C@@H](CCC(=O)O)C(=O)O)cc1 (stereo partly shown) [EDX, Edatrexate]",survival,"9L/FPGS cells [2]; 9L/FPGS cells, 300 nM, 4 hour pulse",below 10%
same,range of concentrations with statistically significant difference in survival between 9L and 9L/FPGS,9L/FPGS cells [2]; 4 hour pulses,"10,000 fold"
same,difference in ED50 between 9L and 9L/FPGS,"9L/FPGS cells [2]; 4 hour pulses, FIG. 1 / FIG. 3A",67 fold
same,EC50,9L/FPGS cells [2]; [12],26 nM
same,EC50,"9L/FPGS cells [2]; 4 hrs drug exposure, bystander experiment FIG. 4a (MTX) / 4b (EDX)",20 nM
same,EC50,9L/FPGS cells [2]; [13],18 nM
same,9L/BAG colonies relative to conditioned medium from non-treated cells,9L/BAG cells; conditioned medium from 9L cells pulsed with 0.3 μM for 4 hours,83%
same,9L/BAG colonies relative to conditioned medium from non-treated cells,9L/BAG cells; conditioned medium from 9L/FPGS cells pulsed with 0.3 μM for 4 hours,47%
same,"Km of FPGS, lower than its Km for MTX",FPGS,4-5 fold
same,EC50,9L cells [3]; [12],1200 nM
same,EC50,"9L cells [3]; 4 hrs drug exposure, bystander experiment FIG. 4b",895 nM
same,EC50,9L cells [3]; [13],1200 nM
same,EC50,[4]; coculture 1% 9L/FPGS,605 nM
same,EC50,[4]; coculture 10% 9L/FPGS,337 nM
same,EC50,[4]; coculture 20% 9L/FPGS,134 nM
same,transmission efficiency (TE),[4]; cocultures containing 1% 9L/FPGS cells,33.1% and 33%
same,transmission efficiency (TE),[4]; cocultures containing 10% 9L/FPGS cells,63.8% and 64%
same,transmission efficiency (TE),[4]; cocultures containing 20% 9L/FPGS cells,87%
same,growth of tumor volume,[5]; after three weeks,doubled in volume
same,fold growth of tumor volume,[5]; after two weeks,less than 4 fold
same,MTD,in vivo,3 mg/kg/day
same,fold growth of tumor volume,subcutaneous 9L tumors; after three weeks,10 fold
same,fold growth of tumor volume,subcutaneous 9L tumors; after two weeks,8 fold
same,fold growth of tumor volume,[6]; after three weeks,5 fold
same,fold growth of tumor volume,[6]; after two weeks,more than 4 fold
CCc1c2c(nc3ccc(OC(=O)N4CCC(N5CCCCC5)CC4)cc13)-c1cc3c(c(=O)n1C2)COC(=O)[C@]3(O)CC [CPT-11],decrease in ED50 on transfection,[7],8 fold
CN(Cc1cnc2nc(N)nc(N)c2n1)c1ccc(C(=O)NC(CCC(=O)NC(CCC(=O)NC(CCC(=O)NC(CCC(=O)O)C(=O)O)C(=O)O)C(=O)O)C(=O)O)cc1 (stereo not shown) [MTX-G3],POLYGLUTAMATE DISTRIBUTION (percentages of total sample lane radioactivity),9L cells [8],13%
same,POLYGLUTAMATE DISTRIBUTION (percentages of total sample lane radioactivity),9L/FPGS cells [9],18%
CN(Cc1cnc2nc(N)nc(N)c2n1)c1ccc(C(=O)NC(CCC(=O)NC(CCC(=O)O)C(=O)O)C(=O)O)cc1 (stereo not shown) [MTX-G1],POLYGLUTAMATE DISTRIBUTION (percentages of total sample lane radioactivity),9L cells [8],29%
same,POLYGLUTAMATE DISTRIBUTION (percentages of total sample lane radioactivity),9L/FPGS cells [9],22%
NC(=O)c1cc(N2CC2)c([N+](=O)[O-])cc1[N+](=O)[O-] [CB1954],TE values,[10]; 1% cocultures,above 50%
same,TE values,[10]; 10% cocultures,above 70%
CN(Cc1cnc2nc(N)nc(N)c2n1)c1ccc(C(=O)NC(CCC(=O)NC(CCC(=O)NC(CCC(=O)NC(CCC(=O)NC(CCC(=O)O)C(=O)O)C(=O)O)C(=O)O)C(=O)O)C(=O)O)cc1 (stereo not shown) [MTX-G4],POLYGLUTAMATE DISTRIBUTION (percentages of total sample lane radioactivity),9L cells [8],13%
same,POLYGLUTAMATE DISTRIBUTION (percentages of total sample lane radioactivity),9L/FPGS cells [9],28%
CN(Cc1cnc2nc(N)nc(N)c2n1)c1ccc(C(=O)NC(CCC(=O)NC(CCC(=O)NC(CCC(=O)NC(CCC(=O)NC(CCC(=O)NC(CCC(=O)O)C(=O)O)C(=O)O)C(=O)O)C(=O)O)C(=O)O)C(=O)O)cc1 (stereo not shown) [MTX-G5],POLYGLUTAMATE DISTRIBUTION (percentages of total sample lane radioactivity),9L cells [8],1%
same,POLYGLUTAMATE DISTRIBUTION (percentages of total sample lane radioactivity),9L/FPGS cells [9],3%
Nc1nc(O)c2ncn(COC(CO)CO)c2n1 [ganciclovir],ED50 shift nontransfected versus transfected cells,[11],500 fold
CN(Cc1cnc2nc(N)nc(N)c2n1)c1ccc(C(=O)NC(CCC(=O)NC(CCC(=O)NC(CCC(=O)O)C(=O)O)C(=O)O)C(=O)O)cc1 (stereo not shown) [MTX-G2],POLYGLUTAMATE DISTRIBUTION (percentages of total sample lane radioactivity),9L cells [8],15%
same,POLYGLUTAMATE DISTRIBUTION (percentages of total sample lane radioactivity),9L/FPGS cells [9],19%
